Data from patent US10406233B2, “Telodendrimers with enhanced drug delivery” (priority 2011, dated 2019).

Experiments:
[1] = Maximum tolerated dose (MTD) study; settings: mice, intravenous
[2] = Toxicity monitoring in the therapeutic study (body weight, blood cell counts, serum chemistry, heart histology); assay type: in vivo, Raji tumor bearing mice
Procedure: Subcutaneous Raji lymphoma xenograft mouse model was used to evaluate the therapeutic efficacy of different formulations of DOX. When tumor volume reached 150-300 mm^3, mice were intravenously administrated with PBS, DOX.HCl, Doxil®, or DOX-PEG^5k-CA4^αRh4^ε at the dose of 10 mg/kg DOX equivalent (MTD of free DOX) (n=5-8). The treatment was given every four day on days 0, 4 and 8 for total three doses. Tumor sizes were measured with a digital caliper twice per week. Tumor volume was calculated by the formula (L×W^2)/2, where L is the longest, and W is the shortest in tumor diameters (mm). To compare between groups, relative tumor volume (RTV) was calculated at each measurement time point (where RTV equals the tumor volume at given time point divided by the tumor volume prior to initial treatment). For humane reasons, animals were sacrificed when the implanted tumor volume reached 2000 mm^3, which was considered as the end point of survival data. At day 7 after the last dosage, blood samples were obtained from all the mice for the measurement of blood cell counts, hepatic or renal function tests (ALT, AST, and BUN), and serum enzyme markers of cardiotoxicity including creatine kinase (CK) and lactate dehydrogenase (LDH). One mouse from each group was also sacrificed, and its heart was submitted for histopathology evaluation.

[3] = tested on: Subcutaneous Raji lymphoma xenograft; experiment: In vivo anti-tumor efficacy study; design: species or system nude mice; settings: 10 mg/kg DOX i.v. days 0, 4, 8
Procedure: Lymphoma xenograft mouse models were established by subcutaneously injecting 1×10^7 Raji lymphoma cells in a 100 μL of mixture of PBS and Matrigel (1:1 v/v) at the right flank in female nude mice.

[4] = day 7 after last dosage, free DOX vs untreated mice, nanoformulations vs free DOX (P<0.05)

COc1cccc2c1C(=O)c1c(O)c3c(c(O)c1C2=O)C[C@@](O)(C(=O)CO)C[C@@H]3O[C@H]1C[C@H](N)[C@H](O)[C@H](C)O1.Cl [free DOX, Doxorubicin hydrochloride]
MTD [1]: 10 mg/kg | body weight loss ([2]; 10 mg/kg DOX i.v. days 0, 4, 8): significantly higher | serum level of CK [2, 4]: significantly increased | serum level of LDH [2, 4]: significantly increased | WBC count ([2]; day 7 after the last injection, compared to PBS control): significantly decreased | death ([2]; on day 16): one death | median survival time [3]: 32 days | median RTV (relative tumor volume) ([3]; by day 28): 9.9
